# Laboratory results reported in US4069223A, “4-Aminomethyl-1-(3,3,3-triarylpropyl)-4-arylpiperidine and derivatives thereof” (G. D. Searle & Co., priority 1977, dated 1978).
# Key:
# [1] = test system: castor oil induced diarrhea; assay: Castor oil induced diarrhea in the rat; format: in vivo, Charles River male rats; details: for ED50: Rattus norvegicus, po, 1 hour before castor oil; for Potency: relative to diphenoxylate hydrochloride
# Procedure: Adult Charles River male rats were fasted in community cages for 24 hours prior to the test, with free access to water. The compound was administered intragastrically (suspended on 0.5% methycellulose) one hour prior to the administration of castor oil at the dose of 1.0 ml/rat intragastrically. The rats were then observed for the presence or absence of diarrhea, at hourly intervals for up to 8 hours past administration of castor oil. The median effective dose values at each hourly interval were calculated for the compound using the method of Berkson (1953). […] For example:
# Comparative Oral Antidiarrheal Potency and Duration of 4-aminomethyl-1-1-(3,3,3-triphenylpropyl)-4-phenylpiperidine hydrochloride (Compound A) to Diphenoxylate hydrochloride in Rat Castor Oil Diarrhea Test.
# mouse = assay: Tail clip test (analgesic effect); format: in vivo; details: 100 mpk, intragastric
# Procedure: The assessment of the analgesic effect of the present compounds was conducted in the tail clip test.
# A specific clip is applied to the base of the tail of the mouse (adult male weighing 18-25 grams) and the time for the animal to turn around to bite at it is measured. The sensitivity of each mouse is determined one-half hour prior to drug administration. Only those mice attempting to bite the clip are included in the experiment. The test compound is then administered intragastrically and the response to placement of the clip is determined at 30, 60, 90 and 120 minutes after treatment. A response is considered positive if the animal takes more than 2 times the pre-drug time to bite at the clip at any of these time intervals. A test compound is considered active when 50 percent or more of the animals used show a positive response.
compound,measurement,setting,value
"Cl.NCC1(c2ccccc2)CCN(CCC(c2ccccc2)(c2ccccc2)c2ccccc2)CC1 [Compound A, 4-aminomethyl-1-(3,3,3-triphenylpropyl)-4-phenylpiperidine hydrochloride]",ED50,"[1]; 2 hours after castor oil, intragastric",3.53 mg/kg
same,ED50,"[1]; 3 hours after castor oil, intragastric",4.24 mg/kg
same,ED50,"[1]; 4 hours after castor oil, intragastric",5.4 mg/kg
same,ED50,"[1]; 5 hours after castor oil, intragastric",5.58 mg/kg
same,ED50,"[1]; 6 hours after castor oil, intragastric",5.79 mg/kg
same,ED50,"[1]; 7 hours after castor oil, intragastric",7.48 mg/kg
same,ED50,"[1]; 8 hours after castor oil, intragastric",7.48 mg/kg
same,inhibition of gastrointestinal motility,"[1]; rat castor oil test, intragastric",found to inhibit gastrointestinal motility
same,Potency,[1]; 2 hours after castor oil,0.06
same,Potency,[1]; 3 hours after castor oil,0.11
same,Potency,[1]; 4 hours after castor oil,0.16
same,Potency,[1]; 5 hours after castor oil,0.24
same,Potency,[1]; 6 hours after castor oil,0.29
same,Potency,[1]; 7 hours after castor oil,0.25
same,Potency,[1]; 8 hours after castor oil,0.26
same,analgesic effect,mouse,weak analgesic effect
